Tested on: peripheral blood mononuclear cell (PBMC)
Assay: Inhibition of PMA/ionomycin-stimulated peripheral blood mononuclear cell proliferation
Format: cell-based
Details: human PBMC from a single donor, PMA 0.5 ng/ml and ionomycin 500 ng/ml, 72 hours, 3H-Thymidine incorporation; read-out: IA50 (the source's name)
Experimental: The ability of compounds which can inhibit PMA/ionomycin-stimulated peripheral blood mononuclear cell proliferation can be assessed, for example using the procedure set out below:
Inhibition of PMA/Ionomycin-Stimulated Peripheral Blood Mononuclear Cell Proliferation
The assay for Phorbol 12-myristate 13-Acetate (PMA)/ionomycin-stimulated peripheral blood mononuclear cell (PBMC) proliferation was performed in 96-well flat bottomed microtitre plates. Compounds were prepared as 10 mM stock solutions in dimethyl sulfoxide. A 50-fold dilution of this was prepared in RPMI culture medium and serial diutions were prepared from this solution. 10 μl of the 50-fold diluted stock, or dilutions of it, were added to the well to give concentrations in the assay starting at […] and going down. Into each well was placed 1×10^5 PBMC, prepared from human peripheral blood from a single donor, in RPMI1640 medium supplemented with 10% human serum, 2 mM glutamine and penicillin/streptomycin. PMA (0.5 ng/ml final concentration) and ionomycin (500 ng/ml final concentration) were added to these cells in supplemented RPMI1640 medium (as above) so that the final volume of the assay was 0.2 ml. […] The level of radioactivity incorporated by the cells was then determined and this is a measure of proliferation.

| SMILES | IC50 [nM] |
| --- | --- |
| CCCn1c(=O)n(C)c(=O)c2c(C(=O)N(C)OC)c(Cn3c(C)nc(Cl)c3Cl)sc21 [Example 7, 6-[4,5-Dichloro-2-methyl-1H-imidazol-1-ylmethyl]-1,2,3,4-tetrahydro-N-methoxy-N,3-dimethyl-2,4-dioxo-1-propyl-thieno[2,3-d]pyrimidine-5-carboxamide] | 34.6 |
| CON(C)C(=O)c1c(Cc2ccnc3ccccc23)sc2c1c(=O)n(C)c(=O)n2CC(C)C [Example 2, 1,2,3,4-Tetrahydro-N-methoxy-N,3-dimethyl-1-(2-methylpropyl)-2,4-dioxo-6-(4-quinolinylmethyl)thieno[2,3-d]pyrimidine-5-carboxamide] | 5.88 |

— patent publication US7361660B2, “Chemical compounds” (AstraZeneca AB, priority 2001, dated 2008)
